The values below come from patent US20090054333A1, “Peptide inhibitors of cyclin-dependent kinase activity and uses thereof” (priority 2006, published 2009).

In the experiment the test system is A549 non-small cell lung cancer cell line. Nature of the experiment: treatment of tumor growth in vivo, A549 tumor xenografts. Further details: species or system athymic nude mice (CD1, nu/nu). Particulars: A549 xenograft in nude mice; 50 μl of 1.5 mM peptide injected into the tumoral region. Here is the method: Cell Culture The A549 (wt p53, and wt RB) non-small cell lung cancer cell line was cultured in Ham's F-12 with NaHCO3 (0.75 g NaHCO3/500 ml of Ham's F-12) and 10% (vol/vol) fetal bovine serum (FBS). The cells were cultured at 37° C. in a humidified incubator containing 5% CO2. Cells were harvested, when they reached 70-80% confluence.
Preparation of Tumor Xenografts in Immunodeficient Mice: The animal experiments were carried out in accordance with the Guidelines for the Care and Use of Laboratory Animals (National Institute of Health publication number 85-23) and the institutional guidelines of Temple University. 4-6 week-old female athymic nude mice (CD1, nu/nu) were bought from Charles River Laboratory (Wilmington, Mass.). About a week after the mice arrived, the A549 cells were harvested and then suspended in unsupplemented culture medium without FBS. After the mice were anesthetized by isoflurane inhalation, 4×10^6 cells in a final volume of 100 μl were injected subcutaneously into the right flank of each mouse by using 1-cc syringes with 25.5-gauge needles.
In Vivo Treatments: The length and width of each tumor were measured every time in triplicates by using a Vernier caliper. […]
For each peptide type, three mice were treated. […] The tumor sizes were measured before each treatment. Tumor volumes were calculated and plotted on a graph. […]

Take “Spa310: pRb2/p130 amino acids 641-679 (39 amino acids long), SEQ ID NO:3; LTPRRVTEVRADTGGLGRSITSPTTLYDRYSSPPASTTR (listed as Homo sapiens)”: the tumor growth entry is “does suppress the tumor growth”.
